Measurements published in US20100184769A1, “PDE INHIBITORS FOR THE TREATMENT OF HEARING IMPAIRMENT” (BAYER SCHERING PHARMA AKTIENGESELLSCHAFT, priority 2007, published 2010).

System: acustic trauma and threshold levels of rats
Experiment: Acoustic trauma (AT) in rats, hearing thresholds by auditory brainstem responses (ABR)
Assay type: in vivo, female Sprague Dawley Rats
Conditions: 10 mg/kg p.o. twice daily
Procedure: All animal experiments were performed due to the “German Law for the Protection of Laboratory animals” and were conducted due to the approved guidelines for Animal Health and Welfare. Experiments were performed with female Sprague Dawley Rats with a body weight between 300-400 g. For induction of acoustic trauma (AT) animals were kept under anesthezia (Ketamine, Xylazin, Rompun i.p. injection) and exposed to band noise or pure tones using a calibrated loudspeaker inside a reverberating chamber. The sound consists of a continuous 10 kHz pure-tone presented at 115 dB SPL. All acoustic stimuli were calibrated at the head level of the animal. Rats were treated with either Vardenafil [10 mg/kg/ p.o. dissolved in Ethanol/Solutol/Water (10/40/50) with an application volume of 5 ml/kg] or Placebo [Ethanol/Solutol/Water (10/40/50) with an application volume of 5 ml/kg] twice daily. The first treatment with Vardenafil or Placebo was i.e. 1 h prior to AT. The development and progression/remission of hearing impairment was detected by measuring the hearing thresholds by recordings of auditory brainstem responses (ABR). The threshold was determined by the lowest sound pressure that produced ARBs distinct from noise level. Threshold level analysis was performed prior to the acustic trauma (AT) (Measurement A in table 1), 3-5 hours post AT (Measurement B in table 1), once daily, from day 1 to day 7 post AT (Measurement C to I in table 1) and finally 3 weeks post AT (Measurement J in table 1).

CCCc1nc(C)c2c(=O)[nH]c(-c3cc(S(=O)(=O)N4CCN(CC)CC4)ccc3OCC)nn12 [Vardenafil, 2-(2-Ethoxy-5-(4-ethylpiperazin-1-yl-1-sulfonyl)phenyl)-5-methyl-7-propyl-3H-imidazo (5,1-f) (1,2,4)triazin-4-one]
Hearing Threshold, Measurement B (3-5 hours post AT, first treatment 1 h prior to AT): 38.6 dB SPL
Hearing Threshold, Measurement J (3 weeks post AT): 8.1 dB SPL
Hearing Threshold, Measurement C (day 1 post AT): 28.3 dB SPL
Hearing Threshold, Measurement D (day 2 post AT): 19.5 dB SPL
Hearing Threshold, Measurement E (day 3 post AT): 16.5 dB SPL
Hearing Threshold, Measurement F (day 4 post AT): 14.3 dB SPL
Hearing Threshold, Measurement G (day 5 post AT): 12.4 dB SPL
Hearing Threshold, Measurement H (day 6 post AT): 11.2 dB SPL
Hearing Threshold, Measurement I (day 7 post AT): 10.9 dB SPL
Hearing Threshold, Measurement A (prior to acustic trauma (AT)): 5.9 dB SPL
